Reference: paper PMC9030254, “Target Hopping from Protein Kinases to PXR: Identification of Small-Molecule Protein Kinase Inhibitors as Selective Modulators of Pregnane X Receptor from TüKIC Library” (Cells, 2022)

Tests used:
Test in all cases: PXR target gene mRNA expression in differentiated HepaRG cells (RT-qPCR)
Type in all cases: cell-based
CYP3A4 = conditions: 10 µM, 48 h
Description: (§1) HepaRG cells (Biopredic, Rennes, France) were cultivated in phenol red-free William’s E medium, supplemented with 10% FBS, 2 mM glutamine, 100 U/mL penicillin, 100 µg/mL streptomycin, 5 µg/mL insulin, and 50 µM hydrocortisone. For gene expression analyses, 1.0 × 10^5 cells were seeded per well of a 12-well plate. After reaching confluence, growth medium was supplemented with 2% DMSO, and cells were further cultivated for 2 weeks for differentiation into hepatocytes, as described previously. Afterward, cells were adapted to induction medium (growth medium with FBS reduced to 2% and 0.2% DMSO) for 48 h. Then chemical treatment was started for another 48 h, with daily medium change.
(§2) Total RNA was prepared from LS174T and HepaRG cells using the NucleoSpin RNA kit (Macherey-Nagel, Düren, Germany). RNA integrity was analyzed by formaldehyde-agarose gel electrophoresis. First strand cDNA was synthesized as described earlier. Relative quantification analyses were conducted with TaqMan RT-PCR utilizing the BioMark HD system and FLEX Six Gene Expression Integrated Fluidic Circuits (Fluidigm, South San Francisco, CA, USA) as described previously. TaqMan gene expression assays were either the commercially available predesigned assays Hs00184500_m1 (ABCB1) and Hs00604506_m1 (CYP3A4) (Thermo Fischer Scientific) or have been described previously: CYP2B6 [31] and 18S rRNA [39]. Data were analyzed as described previously. Gene expression levels were normalized to respective 18S rRNA levels.
(§3) Figure 7 Effects of novel PXR ligands on endogenous PXR target gene expression. […] (B) HepaRG cells were treated with 0.2% DMSO, 10 µM RIF, or 10 µM compound 100 or cotreated with 10 µM RIF and compound 100 for 48 h. mRNA expression was measured as described above.

CYP2B6 = conditions: 10 µM, 48 h
Description: as §1, §2, §3

ABCB1 = conditions: 48 h
Description: as §1, §2, §3

Q: Which “expression of CYP3A4 mRNA” value (CYP3A4) does the source give for `O=C(Cc1ccccc1)Nc1ccc(F)c(Nc2ccc3c(c2)CCCCC3=O)c1` [Compound 100] here?
A: induced the expression of ABCB1, CYP2B6, and CYP3A4

Q: And the “expression of CYP2B6 mRNA” value (CYP2B6)?
A: induced the expression of ABCB1, CYP2B6, and CYP3A4

Q: What about the “effect on rifampicin-induced expression of ABCB1” value (ABCB1; 10 µM compound + 10 µM rifampicin) of the same molecule?
A: only minor inhibitory effects

Q: What about the “expression of ABCB1 mRNA” value (ABCB1; 10 µM) of the same molecule?
A: induced the expression of ABCB1, CYP2B6, and CYP3A4
